Test system: KCNQ channels
Assay: Thallium flux assay for KCNQ channel openers
Format: cell-based
Details: HEK-293 cells stably transfected with a KCNQ family member; for Min conc. response: minimal active concentration: lowest concentration giving signal >= 4 SD of negative controls; for EC50: thallium flux, 10 point concentration series
Method: Thallium Flux Assay for KCNQ Channel Openers.
The thallium assay is a modification of that published by Weaver and is referenced in its entirety (Weaver, C. D. WO 02/31508, 2002).
Approximately 20,000 cells/well of an HEK-293 cell line stably transfected with one of the members of the KCNQ family were plated into clear-bottom, black-walled, poly-D-lysine coated, 384 well assay plates in 20 μl/well of low chloride plating medium. Low chloride plating medium was composed of the following: sodium gluconate, 109 mM; potassium gluconate, 5.4 mM; hemi-calcium gluconate, 3.6 mM; magnesium sulfate, 0.8 mM; sodium bicarbonate, 26.2 mM; sodium phosphate monobasic, 1.2 mM; glutamine, 2 mM; glucose, 5 mM; 4-(2-hydroxyethyl)-1-piperazineethanesulfonic acid (HEPES) (pH 7.3) 10 mM, MEM vitamin solution (10× concentration of vitamins, Gibco/LifeTechnologies 11120-052) and MEM amino acid solution (1× concentration of amino acids, Gibco/LifeTechnologies 11130-051).
Following overnight incubation in a 5% CO2 incubator at 37° C., the cells in the plates were loaded with 20 μl/well of a dye loading solution containing the commercially available thallium-sensitive fluorescent dye BTC-AM, the acetomethoxy ester of BTC (see U.S. Pat. No. 5,501,980) (2 μM) and pluronic acid F-127 (Molecular Probes P 6867) (0.02% w/v) in chloride free assay buffer. Chloride free assay buffer was composed of the following: sodium gluconate, 140 mM; potassium gluconate, 2.5 mM; hemi-calcium gluconate, 6 mM; hemi-magnesium gluconate, 2 mM; glucose, 5 mM; HEPES (pH 7.3), 10 mM.
Following incubation in the dye loading solution for from 45-90 min at room temperature, the dye loading solution was removed by aspiration and replaced with 40 μl/well of chloride free assay buffer.
Prior to addition to cell plates, test compound and standard compounds were dissolved in DMSO to 3 mM concentration. Compounds were then diluted from the 3 mM stock to 100-fold over the final assay concentration in DMSO. Finally, compounds in DMSO were diluted from 100-fold over the final assay concentration to 5-fold over the final assay concentration in chloride free assay buffer.
Ten μl/well of compounds at 5-fold over the final assay concentration were then added to the cell plates. This represents a 1:5 dilution, yielding the final test concentration. The wells used for test compounds were A1-P20. Wells A21-P22 contained a standard opener and a maximally efficacious concentration (positive control). Wells A23-P24 contained chloride free assay buffer containing 1% DMSO (negative control).
Following addition of test compounds, the plates were loaded onto the Molecular Devices FLIPR. The 488 nm line of the argon laser was used to excite the BTC and the emission filter was a 540(+/−30) nm. Images were collected at 1 Hz. Ten seconds of baseline were collected and then the FLIPR was used to add 13 μl/well of a stimulus buffer composed of 7.5 mM Tl2SO4 in chloride free assay buffer. Images were collected for an additional 60 seconds.
For data analysis, the amplitude of the average of the negative controls was subtracted from all wells. The amplitudes of the test compounds were then compared to the value of four standard deviations of the negative control wells. The lowest concentration of a test compound sufficient to generate a signal amplitude greater than or equal to four standard deviations from the amplitude of the negative controls was defined as the minimal active concentration.
For generating EC50 values, compounds were serially diluted in 1:3 volume increments to produce a 10 point concentration series. EC50 values were calculated by fitting the resulting amplitudes to a single-site logistic equation. EC50 was defined as the concentration of test compound required to yield 50% of the maximal response. Maximal response (Maximal opening) was the largest signal amplitude divided by the negative control amplitude generated by any concentration of a test compound. […]

For CC(NC(=O)c1sc(C(O)CN(C)Cc2ccco2)nc1C(F)(F)F)c1cccc(C(F)(F)F)c1 (centres unmarked) [Example 43, 2-[1-hydroxy-[2-(2-furanylmethyl)methylamino]ethyl]-N-[1-[3-(trifluoromethyl)phenyl]ethyl]-4-(trifluoromethyl)-5-thiazolecarboxamide], the Min conc. response was 3 µM and the EC50 was 0.05 to 1 µM.
Work on CCCN(CCc1nc(C(F)(F)F)c(C(=O)NC(C)c2cccc(N(C)C)c2)s1)CC1CC1 (centres unmarked) [Example 29, 2-[2-[(cyclopropylmethyl)propylamino]ethyl]-N-[1-[3-(dimethylamino)phenyl]ethyl]-4-(trifluoromethyl)-5-thiazolecarboxamide] yielded a Min conc. response of 3 µM and an EC50 of 1 to 20 µM.
CCN(CC)CCc1nc(C(F)(F)F)c(C(=O)NC(C)c2cccc(N(C)C)c2)s1 (centres unmarked) [Example 16, 2-[2-(diethylamino)ethyl]-N-[1-[3-(dimethylamino)phenyl]ethyl]-4-(trifluoromethyl)-5-thiazolecarboxamide] gave a Min conc. response of 0.3 µM and an EC50 of 1 to 20 µM.
COCCN(CCOC)CCc1nc(C(F)(F)F)c(C(=O)NC(C)c2cccc(C(F)(F)F)c2)s1 (centres unmarked) [Example 39] gave a Min conc. response of 3 µM and an EC50 of 1 to 20 µM.
With CCC(CC)NCCc1nc(C(F)(F)F)c(C(=O)NC(C)c2cccc(C(F)(F)F)c2)s1 (centres unmarked) [Example 34, 2-[2-(3-pentylamino)ethyl]-N-[1-[3-(trifluoromethyl)phenyl]ethyl]-4-(trifluoromethyl)-5-thiazolecarboxamide] the Min conc. response was 3 µM and the EC50 was 1 to 20 µM.
CC(NC(=O)c1sc(C(O)CN2CCCC2)nc1C(F)(F)F)c1cccc(OC(F)(F)F)c1 (centres unmarked) [Example 57, 2-[1-hydroxy-2-(1-pyrrolidinyl)ethyl]-N-[1-[3-(trifluoromethoxy)phenyl]ethyl]-4-(trifluoromethyl)-5-thiazolecarboxamide] showed a Min conc. response of 3 µM.
COCCN(CCOC)CCc1nc(C(F)(F)F)c(C(=O)NC(C)c2cccc(OC(F)(F)F)c2)s1 (centres unmarked) [Example 38] gave a Min conc. response of 3 µM and an EC50 of 1 to 20 µM.
CC(NC(=O)c1sc(CCN2CCCC2)nc1C(F)(F)F)c1cccc(N(C)C)c1 (centres unmarked) [Example 9, N-[1-[3-(dimethylamino)phenyl]ethyl]-2-[2-(1-pyrrolidinyl)ethyl]-4-(trifluoromethyl)-5-thiazolecarboxamide] was tested, and the Min conc. response was 10 µM and the EC50 was 1 to 20 µM.
CC(NC(=O)c1sc(C(O)CN2CCOCC2)nc1C(F)(F)F)c1cccc(C(F)(F)F)c1 (centres unmarked) [Example 52, 2-[1-hydroxy-2-(4-morpholinyl)ethyl]-4-(trifluoromethyl)-N-[1-[3-(trifluoromethyl)phenyl]ethyl]-5-thiazolecarboxamide] was tested, and the Min conc. response was 10 µM.
For CC(NC(=O)c1sc(CCN2CCC(O)CC2)nc1C(F)(F)F)c1cccc(OC(F)(F)F)c1 (centres unmarked) [Example 26, 2-[2-(4-hydroxy-1-piperidinyl)ethyl]-4-(trifluoromethyl)-N-[1-[3-(trifluoromethoxy)phenyl]ethyl]-5-thiazolecarboxamide], the Min conc. response was 10 µM and the EC50 was 1 to 20 µM.
CC(NC(=O)c1sc(CCN2CCC(O)CC2)nc1C(F)(F)F)c1cccc(C(F)(F)F)c1 (centres unmarked) [Example 27, 2-[2-(4-hydroxy-1-piperidinyl)ethyl]-4-(trifluoromethyl)-N-[1-[3-(trifluoromethyl)phenyl]ethyl]-5-thiazolecarboxamide] gave a Min conc. response of 30 µM and an EC50 of 1 to 20 µM.
In the case of CCN(CC)CC(O)c1nc(C(F)(F)F)c(C(=O)N[C@@H](C)c2cccc(N3CCOCC3)c2)s1 (stereo partly drawn) [Example 49, 2-[2-(diethylamino)-1-hydroxyethyl]-N-[(1S)-1-[3-(4-morpholinyl)phenyl]ethyl]-4-(trifluoromethyl)-5-thiazolecarboxamide], the Min conc. response is reported as 30 µM.
Work on CC(NC(=O)c1sc(C(O)CN2CCCC2)nc1C(F)(F)F)c1cccc(N(C)C)c1 (centres unmarked) [Example 58, N-[1-[3-(dimethylamino)phenyl]ethyl]-2-[1-hydroxy-2-(1-pyrrolidinyl)ethyl]-4-(trifluoromethyl)-5-thiazolecarboxamide] yielded a Min conc. response of 0.3 µM.
CC(NC(=O)c1sc(C(O)CN2CCCCC2)nc1C(F)(F)F)c1cccc(OC(F)(F)F)c1 (centres unmarked) [Example 41, 2-[1-hydroxy-2-(1-piperidinyl)ethyl]-N-[1-[3-(trifluoromethoxy)phenyl]ethyl]-4-(trifluoromethyl)-5-thiazolecarboxamide] showed a Min conc. response of 30 µM and an EC50 of 1 to 20 µM.
In the case of C[C@H](NC(=O)c1sc(C(O)CN2CCCC2)nc1C(F)(F)F)c1cccc(N2CCOCC2)c1 (stereo partly drawn) [Example 59, 2-[1-hydroxy-2-(1-pyrrolidinyl)ethyl]-N-[(1S)-1-[3-(4-morpholinyl)phenyl]ethyl]-4-(trifluoromethyl)-5-thiazolecarboxamide], the Min conc. response is reported as 30 µM.
Molecule CC(NC(=O)c1sc(C(O)CN2CCCCC2)nc1C(F)(F)F)c1cccc(C(F)(F)F)c1 (centres unmarked) [Example 56, 2-[1-hydroxy-2-(1-piperidinyl)ethyl]-4-(trifluoromethyl)-N-[1-[3-(trifluoromethyl)phenyl]ethyl]-5-thiazolecarboxamide] has a Min conc. response of 30 µM.
With CC(NC(=O)c1sc(CCN2CCCCC2)nc1C(F)(F)F)c1cccc(OC(F)(F)F)c1 (centres unmarked) [Example 22, 2-[2-(1-piperidinyl)ethyl]-N-[1-[3-(3-trifluoromethoxy)phenyl]ethyl]-4-(trifluoromethyl)-5-thiazolecarboxamide] the Min conc. response was 0.3 µM and the EC50 was 0.05 to 1 µM.
CCCN(CC1CC1)CC(O)c1nc(C(F)(F)F)c(C(=O)NC(C)c2cccc(OC(F)(F)F)c2)s1 (centres unmarked) [Example 44] was tested, and the Min conc. response was 3 µM and the EC50 was 0.05 to 1 µM.
For C[C@H](NC(=O)c1sc(CCN2CCCCC2)nc1C(F)(F)F)c1cccc(N2CCOCC2)c1 [Example 25, N-[1-[3-(4-morpholinyl)phenyl]ethyl]-2-[2-(1-piperidinyl)ethyl]-4-(trifluoromethyl)-5-thiazolecarboxamide], the Min conc. response was 3 µM and the EC50 was 1 to 20 µM.
Work on CCCN(CCc1nc(C(F)(F)F)c(C(=O)NC(C)c2cccc(OC(F)(F)F)c2)s1)CC1CC1 (centres unmarked) [Example 28, 2-[2-[(cyclopropylmethyl)propylamino]ethyl]-N-[1-[3-(trifluoromethoxy)phenyl]ethyl]-4-(trifluoromethyl)-5-thiazolecarboxamide] yielded a Min conc. response of 0.3 µM and an EC50 of less than 0.05 µM.
With C[C@H](NC(=O)c1sc(CCNC2CCCC2)nc1C(F)(F)F)c1cccc(-c2cccnc2)c1 [Example 37] the Min conc. response was 30 µM and the EC50 was 1 to 20 µM.
Molecule CC(NC(=O)c1sc(CCN2CCSCC2)nc1C(F)(F)F)c1cccc(N(C)C)c1 (centres unmarked) [Example 46, N-[1-[3-(dimethylamino)phenyl]ethyl]-2-[2-(4-thiomorpholinyl)ethyl]-4-(trifluoromethyl)-5-thiazolecarboxamide] has a Min conc. response of 3 µM.
CC(NC(=O)c1sc(C(O)CN2CCCC2)nc1C(F)(F)F)c1cccc(C(F)(F)F)c1 (centres unmarked) [Example 42, 2-[1-hydroxy-2-(1-pyrrolidinyl)ethyl]-N-[1-[3-(trifluoromethyl)phenyl]ethyl]-4-(trifluoromethyl)-5-thiazolecarboxamide] was tested, and the Min conc. response was 3 µM and the EC50 was 0.05 to 1 µM.
In the case of CCN(CC)CCc1nc(C(F)(F)F)c(C(=O)N[C@@H](C)c2cccc(-c3cccnc3)c2)s1 [Example 31], the Min conc. response is reported as 0.3 µM and the EC50 is reported as 1 to 20 µM.
